Columns and labels:
[1] = test system: I477N mutant myocilin; assay: I477N mutant myocilin levels in HEK iI477N cells, Western blot; type: cell-based, human; settings: for effect on I477N mutant myocilin levels: 24 hours, indicated concentrations
Protocol: (§1) FIGS. 16A-E are a series of images depicting inhibition of the Hsp90 chaperone complex reduces the levels of the disease-causing I477N myocilin. Western blot of lysates from HEK iI477N cells treated with the indicated concentrations of the pan Hsp90/Grp94 inhibitors 17-AAG (A) and celastrol (B) for 24 hours. (C) Western blot of lysates from HEK cells conditionally over-expressing I477N myocilin that were treated with 7.5 μM of 17-AAG or vehicle (Veh) and harvested at indicated time points. (D) Dot blot of the cell culture media of HEK iWT cells that were treated with the indicated concentration of 17AAG. (E) Western blot of lysates from HEK iI477N cells and treated with indicated concentrations of a Grp94 selective inhibitor for 24 hours.
A well-established Human Embryonic Kidney (HEK) cell model that conditionally overexpresses wildtype (iWT) or I477N mutant myocilin (iI477N) was used in these studies. (Joe M K & Tomarev S I (2010) Expression of myocilin mutants sensitizes cells to oxidative stress-induced apoptosis: implication for glaucoma pathogenesis. Am J Pathol 176(6):2880-2890) In this inducible and stable cell line, wildtype or I477N myocilin harbors a Flag-tag to ease downstream detection. The inventors confirmed wildtype myocilin secretion and I477N intracellular retention using dot blot analysis of the cell culture media or Western blot of the lysates, respectively (FIG. 10A). The inventors further corroborated ER retention of I477N myocilin by immunofluorescence co-localization (FIG. 10B).
(§2) Small-molecule inhibition of Hsp90, including Grp94, is in clinical development for a number of diseases, and since Grp94 sequesters mutant myocilin from ERAD and Grp94 knockdown enables efficient clearance, the effects of Hsp90 inhibitors were tested. […] 17AAG facilitated reductions in I477N myocilin as soon as 3 hours after treatment (FIG. 16C). As expected, levels of wildtype myocilin were unaffected by 17-AAG, even at a very high dose (FIG. 16D). […] (Rousaki A, et al. (2011) Allosteric Drugs: The Interaction of Antitumor Compound MKT-077 with Human Hsp70 Chaperones. J Mol Biol 411(3):614-632)
Cells were plated and grown as previously described. […] Inducible cells were treated with […] of Tetracycline to induce myocilin expression, 24 hours prior to transfection. SiRNA transfections were performed with Silentfect reagent (BioRad). DNA Transfections were performed with Lipofectamine 2000 (Invitrogen) for 48 hours. The cells were harvested in Mammalian Protein Extraction Reagent (M-PER) buffer (Pierce) containing 1× protease inhibitor mixture (Calbiochem), 100 mM phenylmethylsulfonyl fluoride, and 1× phosphatase inhibitor II and III cocktails (Sigma).
Cells were treated with Grp94 inhibitor and Hsp70/Grp78 inhibitor for 24 hours. Proteasomal inhibition was achieved by treating cells with 0.6 uM and 0.8 uM of epoxomicin.
Western blot and coimmunoprecipitation analyses were performed as previously described. (Abisambra J F, et al. (2012) DnaJA1 Antagonizes Constitutive Hsp70-Mediated Stabilization of Tau. J Mol Biol) Protein samples were prepared using 2× Laemmli sample buffer (Bio-Rad). Samples were boiled for 5-10 min and then loaded onto a 10 well, 10% Tris-glycine gels (Invitrogen) or 18-well, 10% criterion gels (Bio-Rad). The gels were transferred onto PVDF membranes (Millipore) and then blocked for 1 hr at room temperature with 7% milk. […]

[2] = test system: BiP expression; assay: Induction of BiP expression, immunoblot
Description: Grp94, BiP and PDIA6 were detected with the monoclonal anti-KDEL antibody, AKT by rabbit anti-serum. 14-3-3 served as loading control. Numbers below BiP, Grp94, and AKT bands are the relative expression levels, determined by densitometry.
The inventors therefore assessed the ability of 2 to cause BiP up-regulation, in comparison to pan-Hsp90 inhibitors.

[3] = test system: wildtype myocilin; assay: Wildtype myocilin in HEK iWT cells, dot blot of media; type: cell-based, human; settings: even at a very high dose
Protocol: as §1
as §2, with “411(3):614-632) […]” for “411(3):614-632)”

[4] = test system: full-length Grp94 versus yHsp82; settings: cited from earlier work
[5] = test system: HeLa cells; assay: HeLa cell survival, XTT assay (GRP94-sufficient or -deficient cells); type: cell-based; settings: Homo sapiens, 48 hrs, regardless of the presence of GRP94, read-out: IC50 for HeLa cell viability
Protocol: (§3) GRP94 and BiP were detected by the anti-KDEL antibody. *, an unknown KDEL-containing band. […] Cell survival was measured by XTT assay (n=4).
Similar results were obtained with other cell lines (e.g. C2C12 in FIG. 6).

[6] = test system: Drosophila larvae (Gp93); assay: Drosophila larval growth on supplemented fly food; type: in vivo; settings: for effect on Drosophila larval growth: dietary, 250 μg/ml to 1 mg/ml in fly food, first instar w1118 larvae
Description: (Maynard, J. C. et al. Gp93, the Drosophila GRP94 ortholog, is required for gut epithelial homeostasis and nutrient assimilation-coupled growth control. Dev. Biol. 339, 295-306, (2010)). In the Drosophila model, maternal Gp93 is sufficient to support embryogenesis in Gp93 homozygous null embryos. In the absence of zygotic expression of Gp93, however, larvae display a pronounced growth defect, commensurate with disrupted gut epithelial morphology, decreased gut nutrient uptake, and marked aberrations in copper cell structure and function. As a consequence, loss of Gp93 expression is larval lethal in Drosophila.
To determine the effects of compound 2 on Drosophila larval growth, first instar wild type (w1118) larvae were placed onto fly food supplemented with either no supplement (A), 0.1% (B), 0.3% (C), or 0.5% (D) DMSO (vehicle controls) or fly food supplemented with 250 μg/ml (E), 500 μg/ml (F), 750 μg/ml (G) or 1 mg/ml (H) compound 2. […] In parallel experiments, larval gut tissue was obtained from each of the feeding conditions and gut epithelial morphology evaluated by fluorescence microscopy. […] Pharmacokinetic studies of compound absorption and metabolism may provide addition insights into this partial phenotypic behavior.

[7] = test system: Hsp90α/β client proteins Raf and Akt; assay: Western blot of Hsp90α/β client proteins in HEK293 cell lysates; type: cell-based, human
Protocol: as §3
In contrast, loss of functional Hsp90α or Hsp90β results in cell death. […] To support these findings, western blot analyses of Hsp90α/β client proteins were performed from HEK293 cell lysates. Prototypical pan-Hsp90 inhibitors induce proteasome-mediated degradation of Hsp90α/β client substrates.
Cells were harvested in cold PBS and lysed in mammalian protein extraction reagent (MPER, Pierce) and protease inhibitors (Roche) on ice for 1 h. Lysates were clarified at 14,000 g for 10 min at 4° C. Protein concentrations were determined with the Pierce BCA assay kit per the manufacturer's instructions. Equal amounts of protein (10 μg) were electrophoresed under reducing conditions, transferred to a PVDF membrane, and immunoblotted with the corresponding specific antibodies. Membranes were incubated with an appropriate horseradish peroxidase-labeled secondary anti-body, developed with chemiluminescent substrate, and visualized.

[8] = test system: IGF-II secretion; assay: IGF-II secretion by serum-starved C2C12 cells, ELISA; type: cell-based; settings: 10 μM, 48 h
Description: IGF-II is a second well-defined Grp94-dependent client protein and active Grp94 is required for the secretion of IGF-II (Ostrovsky et al., 2009). […] (Wanderling, S. et al. GRP94 Is Essential for Mesoderm Induction and Muscle Development Because It Regulates Insulin-like Growth Factor Secretion. Mol. Biol. Cell 18, 3764-3775, (2007); Ostrovsky, O., Eletto, D., Makarewich, C., Barton, E. R. & Argon, Y. Glucose regulated protein 94 is required for muscle differentiation through its control of the autocrine production of insulin-like growth factors. BBA—Mol. Cell Res. 1803, 333-341, (2010); Ostrovsky, O., Ahmed, N. T. & Argon, Y. The Chaperone Activity of GRP94 Toward Insulin-like Growth Factor II Is Necessary for the Stress Response to Serum Deprivation. Mol. Biol. Cell 20, 1855-1864, (2009)). Accordingly, serum-starved C2C12 cells were treated with increasing concentrations of compound 2 and the secretion of IGF-II was measured by ELISA (FIG. 5A).
For IGF-II ELISA, plates were coated with anti-IGF-II (MAb 792, R&D Systems) and incubated with the test cell media. The bound IGF-II was detected with a biotinylated anti-IGF-II antibody (BAF792, R&D Systems) and developed with streptavidin-HRP (R&D Systems) according to the manufacturer's recommended procedure. […] Data were acquired in duplicate on a microtiter-plate reader (Dynatech Laboratories, Chantilly, Va.) at 450 nm.

[9] = test system: C2C12 cells; assay: C2C12 cell viability, XTT assay; settings: C2C12 cells treated as in the IGF-II assay
Protocol: The viability of cells treated as in A was measured at each of the indicated concentrations by the XTT assay.
C2C12 cells (ATCC, Rockville, Md.) were induced to differentiate either by complete withdrawal of serum or by shifting to medium supplemented with 2% house serum. […] Cell growth was measured with the XTT formazan colorimetric assay (Roche), cells were grown in 3% serum, to limit the background of the assay.

Q: With CC[C@H](C)[C@H](NC(=O)[C@H]([C@@H](C)CC)N(C)C(C)=O)C(=O)N[C@H](C(=O)N[C@@H](CC(C)C)C(=O)[C@@]1(C)CO1)[C@@H](C)O [epoxomicin] as the compound, how does the “effect on clearance of I477N myocilin” value ([1]; Grp94 knockdown) read?
A: no effect on clearance

Q: What about the “effect on clearance of I477N myocilin” value ([1]; control siRNA conditions) of the same compound?
A: blocked the clearance of I477N myocilin

Q: For C=CCNC1=C2C[C@@H](C)C[C@H](OC)[C@H](O)[C@@H](C)/C=C(\C)[C@H](OC(N)=O)[C@@H](OC)/C=C\C=C(/C)C(=O)NC(=CC1=O)C2=O [Compound 17-AAG], which “time after treatment at which reductions in I477N myocilin are seen” value ([1]; 7.5 μM) is on record?
A: 3 h

Q: And the “effect on I477N mutant myocilin levels” value [1]?
A: dose-dependent reductions

Q: What about the “up-regulation of BiP” value ([2]; 25 μM, data not shown) of the same compound?
A: did cause BiP up-regulation

Q: What about the “levels of wildtype myocilin” value [3] of the same compound?
A: unaffected

Q: Which “effect on I477N mutant myocilin levels” value [1] does the source give for CCn1c(=Cc2cccc[n+]2C)sc(=C2Sc3ccccc3N2C)c1=O.[Cl-] [YM1] here?
A: did not reduce I477N

Q: With radamide [RDA] as the compound, how does the “binding affinity for full-length Grp94 relative to yHsp82” value [4] read?
A: approximately 2 fold

Q: With C[C@@H]1C[C@H]2O[C@@H]2/C=C\C=C\C(=O)Cc2c(Cl)c(O)cc(O)c2C(=O)O1 [RDC, radicicol] as the compound, how does the “up-regulation of BiP” value ([2]; 10 μM) read?
A: did cause BiP up-regulation

Q: And the IC50 [5]?
A: 8 µM

Q: What does the source list for COC(=O)c1c(O)cc(O)c(Cl)c1CCc1nccn1Cc1ccccc1 [Compound 2]?
A: effect on Drosophila larval growth [6]: dramatic growth phenotype; effect on Drosophila larval growth ([6]; listed as compound 2): clearly stunted the growth of drosophila larvae in a dose-dependent manner; effects on copper cell structure (gut epithelial morphology) ([6]; same feeding conditions, data not shown): No grossly discernible effects; concentration above which BiP expression is induced [2]: above 200 μM; up-regulation of BiP ([2]; 0-75 μM): did not lead to up-regulation of BiP; effect on Akt at BiP-inducing concentrations ([2]; above 200 μM): destabilized Akt; concentration up to which no degradation of Raf or Akt (cytoplasmic client proteins) is induced ([7]; HEK293 cells, 24 h): 100 µM; induction of HSP70 ([7]; compound 2 at 100 μM, GDA positive control 500 nM, HEK293): induction of HSP70; reduction of IGF-II secretion [8]: Approximately 60%; effect on cell viability [9]: little effect on cell viability

Source: patent US9045434B1, “Compositions and methods of treatment for myocilin glaucoma by selectively inhibiting GRP94” (University of South Florida, priority 2012, dated 2015)
